Source: US11730712B2, “Functionalized long-chain hydrocarbon mono- and di-carboxylic acids and derivatives thereof, and their use for the prevention or treatment of disease” (ESPERVITA THERAPEUTICS, INC., priority 2021, dated 2023)

Tested on: liver fibrosis gene panel (770 genes)
Assay: Nanostring nCounter Fibrosis panel gene expression in liver of DEN-injected mice
Assay type: in vivo, mouse
Details: vs vehicle
Description: Nanostring Analysis. RNA was extracted from paired liver and tumor tissue from vehicle, Compound I-1 (100 mg/kg) and Compound I-32 (100 mg/kg) treated mice using an RNeasy kit (Qiagen, Calif., USA) as per manufacturer's protocol. All RNA samples passed the BioAnalyzer quality control test. The expression of target genes in liver and tumor were analyzed using the nCounter Fibrosis and Cancer Panel (NanoString Technologies, Inc., WA, USA), respectively according to manufacturer's protocol at the McMaster Genomics Facility. Technical and biological normalization against global geometric mean was performed in nSolver 4.0 software (NanoString Technologies). Technical normalization was performed in the nSolver software (version 4.0.70) by normalizing sample target raw counts to the geometric mean of positive control spike-ins. Biological normalization was performed by normalizing sample target raw counts to the geometric mean of selected housekeeping genes (Ppia, Nubp1, Nol7, Armh3, Rplp0, Cnot10, Pgk1, and Acad9). Pathway scores were calculated as the first principal component of the normalized expression values for all genes in each pathway and samples were compiled according to experimental groups to determine average pathway scores. Statistical significance was calculated between experimental groups using multiple t-tests and p-values were corrected for multiple comparisons using Benjamin-Hochberg false discovery rate.
Molecular analysis. To identify the pathways modulated in the liver and tumor tissue, nanostring analysis of fibrosis and cancer, pathways, respectively were completed in an n=8 mice treated with vehicle or Compound I-32 or Compound I-1 at 100 mg/kg.

CC(C)(CCCCc1cccc(CCCCC(C)(C)C(=O)O)c1)C(=O)O [Compound I-32, 6-[3-(5-carboxy-5-methylhexyl)-phenyl]-2,2-dimethylhexanoic acid]
Cpt1a Log2FC (NM_013495, 100 mg/kg): −0.363
Creb3 Log2FC (NM_013497, 100 mg/kg): −0.409
P3h3 Log2FC (NM_013534, 100 mg/kg): −0.96
Rora Log2FC (NM_013646, 100 mg/kg): 0.258
Slc25a10 Log2FC (NM_013770, 100 mg/kg): 0.324
H2-M3 Log2FC (NM_013819, 100 mg/kg): −0.633
Xbp1 Log2FC (NM_013842, 100 mg/kg): −0.29
Col5a1 Log2FC (NM_015734, 100 mg/kg): −0.601
Ero1l Log2FC (NM_015774, 100 mg/kg): 0.269
Cfhr1 Log2FC (NM_015780, 100 mg/kg): −0.283
Isg15 Log2FC (NM_015783, 100 mg/kg): −0.673
C6 Log2FC (NM_016704, 100 mg/kg): −1.04
Irf3 Log2FC (NM_016849, 100 mg/kg): −0.206
Actr1a Log2FC (NM_016860, 100 mg/kg): −0.192
Ywhag Log2FC (NM_018871, 100 mg/kg): 0.265
Fbp1 Log2FC (NM_019395, 100 mg/kg): −0.981
Ppp2ca Log2FC (NM_019411, 100 mg/kg): −0.123
Atf7ip Log2FC (NM_019426, 100 mg/kg): −0.289
Ndufa1 Log2FC (NM_019443, 100 mg/kg): 0.156
Htra2 Log2FC (NM_019752, 100 mg/kg): −0.286
Cpb2 Log2FC (NM_019775, 100 mg/kg): −0.467
Uba52 Log2FC (NM_019883, 100 mg/kg): 0.433
Ube2d2a Log2FC (NM_019912, 100 mg/kg): −0.231
Aldh9a1 Log2FC (NM_019993, 100 mg/kg): 0.467
Angptl4 Log2FC (NM_020581, 100 mg/kg): 0.413
Isg20 Log2FC (NM_020583, 100 mg/kg): −0.491
Abcb11 Log2FC (NM_021022, 100 mg/kg): −0.503
Rps6kb2 Log2FC (NM_021485, 100 mg/kg): −0.398
Cxcl12 Log2FC (NM_021704, 100 mg/kg): −0.535
Apoc3 Log2FC (NM_023114, 100 mg/kg): −0.391
Cxcl16 Log2FC (NM_023158, 100 mg/kg): −0.445
Ern1 Log2FC (NM_023913, 100 mg/kg): −0.451
Sec61b Log2FC (NM_024171, 100 mg/kg): −0.37
Hsbp1 Log2FC (NM_024219, 100 mg/kg): −0.155
Cyp27a1 Log2FC (NM_024264, 100 mg/kg): −0.71
Fabp4 Log2FC (NM_024406, 100 mg/kg): 0.887
Ndufb5 Log2FC (NM_025316, 100 mg/kg): 0.36
Ssr2 Log2FC (NM_025448, 100 mg/kg): −0.208
Psenen Log2FC (NM_025498, 100 mg/kg): −0.154
Ndufc1 Log2FC (NM_025523, 100 mg/kg): 0.363
Cox6b1 Log2FC (NM_025628, 100 mg/kg): 0.405
Uqcrh Log2FC (NM_025641, 100 mg/kg): 0.28
Uqcrfs1 Log2FC (NM_025710, 100 mg/kg): 0.188
Map1lc3a Log2FC (NM_025735, 100 mg/kg): 0.744
Ndufb8 Log2FC (NM_026061, 100 mg/kg): 0.279
Erp29 Log2FC (NM_026129, 100 mg/kg): −0.277
Uqcrb Log2FC (NM_026219, 100 mg/kg): 0.377
Sugt1 Log2FC (NM_026474, 100 mg/kg): 0.15
Atg101 Log2FC (NM_026566, 100 mg/kg): −0.483
Ndufs3 Log2FC (NM_026688, 100 mg/kg): 0.148
Ifi35 Log2FC (NM_027320, 100 mg/kg): −0.447
Pgm2 Log2FC (NM_028132, 100 mg/kg): 0.339
Phykpl Log2FC (NM_028398, 100 mg/kg): −0.288
Pik3cb Log2FC (NM_029094, 100 mg/kg): −0.412
Hcar2 Log2FC (NM_030701, 100 mg/kg): 1.41
Cpn1 Log2FC (NM_030703, 100 mg/kg): 0.351
Slc2a2 Log2FC (NM_031197, 100 mg/kg): −0.47
Lamtor2 Log2FC (NM_031248, 100 mg/kg): 0.189
Dock2 Log2FC (NM_033374, 100 mg/kg): −0.474
Ube2n Log2FC (NM_080560, 100 mg/kg): −0.194
Elovl6 Log2FC (NM_130450, 100 mg/kg): 1.22
Acaca Log2FC (NM_133360, 100 mg/kg): 0.893
Fgg Log2FC (NM_133862, 100 mg/kg): −0.387
Acacb Log2FC (NM_133904, 100 mg/kg): 0.681
Il1rap Log2FC (NM_134103, 100 mg/kg): −0.868
Ptpa Log2FC (NM_138748, 100 mg/kg): 0.222
Mylk Log2FC (NM_139300, 100 mg/kg): −0.532
Fegr4 Log2FC (NM_144559, 100 mg/kg): −0.638
Aldob Log2FC (NM_144903, 100 mg/kg): −0.6
C1s1 Log2FC (NM_144938, 100 mg/kg): −0.755
Txndc5 Log2FC (NM_145367, 100 mg/kg): −0.321
Ldlrap1 Log2FC (NM_145554, 100 mg/kg): −0.189
Jak1 Log2FC (NM_146145, 100 mg/kg): −0.166
C8a Log2FC (NM_146148, 100 mg/kg): −1.37
Pkhdi Log2FC (NM_153179, 100 mg/kg): −1.12
Nckap1l Log2FC (NM_153505, 100 mg/kg): −0.653
Mbtps2 Log2FC (NM_172307, 100 mg/kg): 0.306
Cyp4a12a Log2FC (NM_177406, 100 mg/kg): 1.42
Acaa2 Log2FC (NM_177470, 100 mg/kg): 0.314
Jmjd4 Log2FC (NM_178659, 100 mg/kg): −0.516
Nceh1 Log2FC (NM_178772, 100 mg/kg): 0.444
Hadha Log2FC (NM_178878, 100 mg/kg): 0.903
Mfap3 Log2FC (NM_180599, 100 mg/kg): −0.362
Bst2 Log2FC (NM_198095, 100 mg/kg): 0.494
Acsl4 Log2FC (NM_207625, 100 mg/kg): 0.737
Cflar Log2FC (NM_207653, 100 mg/kg): −0.25
Egfr Log2FC (NM_207655, 100 mg/kg): −0.93
Stat3 Log2FC (NM_213659, 100 mg/kg): −0.686
H2-K1 Log2FC (NM_001001892, 100 mg/kg): −0.168
Kdm2a Log2FC (NM_001001984, 100 mg/kg): −0.255
Cfhr2 Log2FC (NM_001025575, 100 mg/kg): −0.596
Ndufs5 Log2FC (NM_001030274, 100 mg/kg): 0.381
Itga1 Log2FC (NM_001033228, 100 mg/kg): −0.312
Dock1 Log2FC (NM_001033420, 100 mg/kg): −0.347
Xaf1 Log2FC (NM_001037713, 100 mg/kg): −0.701
Banf1 Log2FC (NM_001038231, 100 mg/kg): 0.339
Smurf Log2FC (NM_001038627, 100 mg/kg): −0.969
Seh1l Log2FC (NM_001039088, 100 mg/kg): 0.216
Nrp2 Log2FC (NM_001077403, 100 mg/kg): 0.619
Ptafr Log2FC (NM_001081211, 100 mg/kg): −0.408
Brpf3 Log2FC (NM_001081315, 100 mg/kg): 0.3
Aqp8 Log2FC (NM_001109045, 100 mg/kg): −0.632
Igf1 Log2FC (NM_001111274, 100 mg/kg): −0.588
Itga9 Log2FC (NM_001113514, 100 mg/kg): −0.212
Il1r1 Log2FC (NM_001123382, 100 mg/kg): −1.16
Aldh7a1 Log2FC (NM_001127338, 100 mg/kg): −0.344
Rnf152 Log2FC (NM_001160368, 100 mg/kg): −0.687
Cyfip1 Log2FC (NM_001164661, 100 mg/kg): −0.229
Slc25a13 Log2FC (NM_001177572, 100 mg/kg): −0.179
Syk Log2FC (NM_001198977, 100 mg/kg): −0.772
Cd84 Log2FC (NM_001252472, 100 mg/kg): −0.6
Apoc2 Log2FC (NM_001277944, 100 mg/kg): −0.94
Ncf1 Log2FC (NM_001286037, 100 mg/kg): −0.635
Cd68 Log2FC (NM_001291058, 100 mg/kg): −0.732
Itga5 Log2FC (NM_001314041, 100 mg/kg): −0.402
Col6a3 Log2FC (XM_897036, 100 mg/kg): −0.679
